Experimental data published in ChEMBL document CHEMBL5131560, “Discovery of Heteroaryl Urea Isosteres for Formyl Peptide Receptor 2 Agonists” (ACS Med Chem Lett, 2022).
pEC50: −log10 of the molar value.

Tests used:
[1] = target: T1, N-formyl peptide receptor 2 (Homo sapiens, UniProt P25090); test: Agonist activity at human FPR2 overexpressing CHO cells assessed as reduction in intracellular cAMP level incubated for 30 mins by HTRF assay; type: functional, cell-based
T1 sequence (P25090 whole entry): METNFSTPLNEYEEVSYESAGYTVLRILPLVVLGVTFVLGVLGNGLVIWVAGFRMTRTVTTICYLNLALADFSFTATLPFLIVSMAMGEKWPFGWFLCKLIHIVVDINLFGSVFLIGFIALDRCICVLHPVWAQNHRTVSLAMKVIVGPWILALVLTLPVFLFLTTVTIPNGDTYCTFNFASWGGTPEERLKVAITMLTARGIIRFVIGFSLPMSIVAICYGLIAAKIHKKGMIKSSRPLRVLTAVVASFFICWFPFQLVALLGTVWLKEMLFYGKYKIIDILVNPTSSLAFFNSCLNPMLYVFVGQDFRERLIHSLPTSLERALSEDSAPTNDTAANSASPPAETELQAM

[2] = Permeability of the compound at pH 5.5 by PAMPA assay; type: ADME; conditions: read-out: permeability
[3] = AUC (0 to infinity) in C57BL6 mouse at 3 mg/kg, po and measured upto 24 hrs by LC-MS/MS analysis; type: ADME, organism-based; parameters: dose 3 mg/kg, time < 24 hrs, route po; conditions: in vivo
[4] = Protein binding in human assessed as free fraction; type: ADME
Peritoneal macrophage = test: Induction of phagocytosis in mouse peritoneal macrophages assessed as increase in FITC signal preincubated with compound for 15 mins followed by zymosan addition and measured after 1 hr by Trypan Blue based FITC analysis

Compound	pEC50 [1]	other results
COc1cc(F)c([C@@H]2CNC(=O)[C@H]2Nc2cc(-c3ccc(Cl)cc3)[nH]n2)c(F)c1	< 5.00	
COc1cc(F)c([C@@H]2CNC(=O)[C@H]2Nc2nnc(-c3ccccc3Cl)o2)c(F)c1	< 5.00	
COc1cc(F)c([C@@H]2CNC(=O)[C@H]2Nc2nnc(-c3ccc(Cl)cc3)o2)c(F)c1	7.49	Papp [2]: 97 ×10⁻⁶ cm/s; AUC(0-inf) [3]: 8.4 µM·h; fraction unbound [4]: 0.015
COc1cc(F)c([C@@H]2CNC(=O)[C@H]2Nc2cc(-c3ccc(Cl)cc3)on2)c(F)c1		Papp [2]: 110 ×10⁻⁶ cm/s; AUC(0-inf) [3]: 15 µM·h; fraction unbound [4]: 0.005
COc1cc(F)c([C@@H]2CNC(=O)[C@H]2Nc2cc(-c3ccc(Cl)cc3)n(C)n2)c(F)c1	< 5.00	
COc1cc(F)c([C@@H]2CNC(=O)[C@H]2Nc2noc(-c3ccc(Cl)cc3)n2)c(F)c1	5.60	
COc1cc(F)c([C@@H]2CNC(=O)[C@H]2Nc2nc(-c3ccc(Cl)cc3)no2)c(F)c1	5.46	
COc1cc(F)c([C@@H]2CNC(=O)[C@H]2c2nc3c(Cl)cccc3[nH]2)c(F)c1	< 5.00	
COc1ccc(-c2nnc(N[C@@H]3C(=O)NC[C@H]3c3c(F)cc(OC)cc3F)o2)cc1	5.43	
COc1cc(F)c([C@@H]2CNC(=O)[C@H]2Nc2nnc(-c3cccc(Cl)c3)o2)c(F)c1	< 5.00	
COc1cc(F)c([C@@H]2CNC(=O)[C@H]2c2nc3cc(OC)ccc3[nH]2)c(F)c1	< 5.30	
COc1cc(F)c([C@@H]2CNC(=O)[C@H]2NC(=O)Nc2ccccc2)c(F)c1 [BMS-986235]		pEC50 (Peritoneal macrophage): > 9.00; Papp [2]: 44 ×10⁻⁶ cm/s; AUC(0-inf) [3]: 5.6 µM·h; fraction unbound [4]: 0.127

Now from value to compound, other results behind:

pEC50 [1]	Compound	other results
6.96	COc1cc(F)c([C@@H]2CNC(=O)[C@H]2c2nc3cc(Cl)ccc3[nH]2)c(F)c1	
7.40	COc1ccc([C@@H]2CNC(=O)[C@H]2Nc2nnc(-c3ccc(Cl)cc3)o2)c(F)c1	
7.40	COc1cc(F)c([C@@H]2CNC(=O)[C@H]2c2nc3cc(Cl)cnc3[nH]2)c(F)c1	
5.89	COc1cc(F)c([C@@H]2CNC(=O)[C@H]2Nc2nc3ccccc3[nH]2)c(F)c1	
6.60	COc1cc(F)c([C@@H]2CNC(=O)[C@H]2Nc2nnc(-c3ccccc3)o2)c(F)c1	
7.28	COc1cc(F)c([C@@H]2CNC(=O)[C@H]2Nc2nnc(-c3ccc(OC(F)(F)F)cc3)o2)c(F)c1	
5.66	COc1cc(F)c([C@@H]2CNC(=O)[C@H]2Nc2cc(-c3ccc(Cl)cc3)no2)c(F)c1	
6.60	COc1cc(F)c([C@@H]2CNC(=O)[C@H]2Nc2ncc(-c3ccc(Cl)cc3)o2)c(F)c1	
7.43	COc1cc(F)c([C@@H]2CNC(=O)[C@H]2Nc2nnc(-c3ccc(Cl)cc3)s2)c(F)c1	
6.08	COc1cc(F)c([C@@H]2CNC(=O)[C@H]2Nc2nnc(-c3ccc(Cl)cc3F)o2)c(F)c1	
6.80	COc1ccc([C@@H]2CNC(=O)[C@H]2Nc2nnc(-c3ccc(Cl)cc3)o2)cc1	
5.64	COc1cc(F)c([C@@H]2CNC(=O)[C@H]2c2nc3nc(Cl)ccc3[nH]2)c(F)c1	
6.17	COc1cc(F)c([C@@H]2CNC(=O)[C@H]2c2nc3ccccc3[nH]2)c(F)c1	
